Data as given in PubChem BioAssay AID248 (DTP/NCI, 2004).
Values joined by “and” are separate entries in the source; they are usually repeats but may differ in a detail not shown here. Identical values can stand only once. Toxic doses and inconclusive results are not listed. No stated cut-off is given here; in the data, active means T/C of 150% or more; inactive means T/C below 125%.

Tested on: L1210 leukemia ip in BDF1 mice, survival T/C
Test: NCI In Vivo Anticancer Drug Screen. Data for tumor model L1210 Leukemia (intraperitoneal) in B6D2F1 (BDF1) mice
Conditions: endpoint: mean survival time, higher = longer survival
In short: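 Value reflects the ratio of survival in compound-treated mice to survival in vehicle-treated controls, with both groups carrying the same transplanted tumor.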

[1] = dose: 100.0 mg/kg/injection, schedule: Q04DX003 (ip), vehicle: saline
[2] = dose: 50.0 mg/kg/injection, schedule: Q01DX001 (ip), vehicle: saline
[3] = dose: 75.0 mg/kg/injection, schedule: Q01DX001 (ip), vehicle: saline
[4] = dose: 150.0 mg/kg/injection, schedule: Q01DX001 (ip), vehicle: saline
[5] = dose: 300.0 mg/kg/injection, schedule: Q01DX001 (ip), vehicle: saline
[6] = dose: 75.0 mg/kg/injection, schedule: Q04DX003 (ip), vehicle: saline
[7] = dose: 150.0 mg/kg/injection, schedule: Q04DX003 (ip), vehicle: saline
[8] = dose: 100.0 mg/kg/injection, schedule: Q04DX003 (ip), vehicle: Klucel (hydroxypropylcellulose) (HPC)
[9] = dose: 200.0 mg/kg/injection, schedule: Q01DX009 (ip), vehicle: Klucel (hydroxypropylcellulose) (HPC)
[10] = dose: 200.0 mg/kg/injection, schedule: Q04DX003 (ip), vehicle: Klucel (hydroxypropylcellulose) (HPC)
[11] = dose: 100.0 mg/kg/injection, schedule: Q04DX002 (ip), vehicle: Klucel (hydroxypropylcellulose) (HPC)
[12] = dose: 200.0 mg/kg/injection, schedule: Q04DX002 (ip), vehicle: Klucel (hydroxypropylcellulose) (HPC)
[13] = dose: 400.0 mg/kg/injection, schedule: Q04DX002 (ip), vehicle: Klucel (hydroxypropylcellulose) (HPC)
[14] = dose: 400.0 mg/kg/injection, schedule: Q04DX003 (ip), vehicle: Klucel (hydroxypropylcellulose) (HPC)
[15] = dose: 100.0 mg/kg/injection, schedule: Q01DX009 (ip), vehicle: Klucel (hydroxypropylcellulose) (HPC)

Measured: T/C

O=C(O)C1=C/C(=C\C=[N+]2c3cc(O)c(OC4OC(CO)C(O)C(O)C4O)cc3CC2C(=O)[O-])CC(C(=O)O)N1 (stereo not drawn)
inactive: dose: 100.0 mg/kg/injection, schedule: Q04DX003 (ip), vehicle: saline with Tween-80 97 % of control | dose: 200.0 mg/kg/injection, schedule: Q04DX003 (ip), vehicle: saline with Tween-80 94 % of control | dose: 400.0 mg/kg/injection, schedule: Q04DX003 (ip), vehicle: saline with Tween-80 95 % of control

CCN(CC)CCN1CC(=O)Nc2cc(Cl)ccc21
inactive: dose: 25.0 mg/kg/injection, schedule: Q04DX003 (ip), vehicle: saline 94 % of control | dose: 50.0 mg/kg/injection, schedule: Q04DX003 (ip), vehicle: saline 99 % of control | [1] 98 % of control and 87 % of control

CC(=O)CCCC(C)C1CCC2C3CC=C4CC(O)CCC4(C)C3CCC12C (stereo not drawn)
inactive: dose: 75.0 mg/kg/injection, schedule: Q01DX009 (sc), vehicle: steriod suspending solution 99 % of control | dose: 100.0 mg/kg/injection, schedule: Q01DX001 (sc), vehicle: steriod suspending solution 105 % of control | dose: 150.0 mg/kg/injection, schedule: Q01DX009 (sc), vehicle: steriod suspending solution 94 % of control | dose: 200.0 mg/kg/injection, schedule: Q01DX001 (sc), vehicle: steriod suspending solution 101 % of control | dose: 300.0 mg/kg/injection, schedule: Q01DX009 (sc), vehicle: steriod suspending solution 92 % of control | dose: 400.0 mg/kg/injection, schedule: Q01DX001 (sc), vehicle: steriod suspending solution 101 % of control

COc1ccc(NC(=O)Nc2ccc(NC(C)=O)cc2)cc1
inactive: dose: 100.0 mg/kg/injection, schedule: Q01DX009 (ip), vehicle: saline with Tween-80 86 % of control | dose: 200.0 mg/kg/injection, schedule: Q01DX009 (ip), vehicle: saline with Tween-80 92 % of control

COc1ccc(N2C(=O)C3C4c5ccccc5C(C3C2=O)[n+]2ccccc24)cc1 (stereo not drawn)
inactive: [1] 97 % of control | dose: 200.0 mg/kg/injection, schedule: Q04DX003 (ip), vehicle: saline 103 % of control

CCC(CC)(CC)C(OC(=O)c1ccccc1C(=O)O)c1ccccc1 (stereo not drawn)
inactive: [2] 95 % of control | dose: 100.0 mg/kg/injection, schedule: Q01DX001 (ip), vehicle: saline 95 % of control | dose: 200.0 mg/kg/injection, schedule: Q01DX001 (ip), vehicle: saline 97 % of control | dose: 400.0 mg/kg/injection, schedule: Q01DX001 (ip), vehicle: saline 88 % of control

C/C=C/CC1(CC(C)C)C(=O)NC(=S)NC1=O
inactive: [3] 102 % of control | [4] 94 % of control | [5] 99 % of control

CC/C(=N\NS(=O)(=O)c1ccc(C)cc1)C(C)C
inactive: [3] 95 % of control | [6] 91 % of control | [4] 95 % of control | [7] 100 % of control | [5] 97 % of control | dose: 300.0 mg/kg/injection, schedule: Q04DX003 (ip), vehicle: saline 96 % of control

O=S(=O)(Nc1cc(S(=O)(=O)c2ccccc2)c(NS(=O)(=O)c2ccccc2)cc1Cl)c1ccccc1
inactive: [8] 88 % of control | [9] 92 % of control | [10] 88 % of control | dose: 400.0 mg/kg/injection, schedule: Q01DX009 (ip), vehicle: Klucel (hydroxypropylcellulose) (HPC) 87 % of control

Brc1ccc2[nH]cc(/C=N/Nc3nnc(N/N=C/c4c[nH]c5ccc(Br)cc45)c4ccccc34)c2c1
inactive: [2] 101 % of control

CC(C)(C)NC(=O)NCc1ccccc1Cl
inactive: [11] 96 % of control | [12] 96 % of control | [13] 100 % of control

Nc1ccccc1CSc1nc2nc[nH]c(=O)c2[nH]1
inactive: [8] 95 % of control | [10] 95 % of control

O=[N+]([O-])c1ccc2c(c1)OCO2
inactive: [11] 103 % of control | [12] 88 % of control | [13] 94 % of control

C=C/C=N/Nc1ccc([N+](=O)[O-])cc1
inactive: [11] 98 % of control | [12] 92 % of control | [13] 95 % of control

COc1cc([C@@H]2c3cc4c(cc3[C@H](SC(=N)N)[C@H]3COC(=O)[C@H]23)OCO4)cc(OC)c1OC
inactive: dose: 5.0 mg/kg/injection, schedule: Q01DX Z (ip), vehicle: carboxymethylcellulose (CMC) 98 % of control | dose: 6.0 mg/kg/injection, schedule: Q01DX Z (ip), vehicle: carboxymethylcellulose (CMC) 109 % of control | dose: 10.0 mg/kg/injection, schedule: Q01DX Z (ip), vehicle: carboxymethylcellulose (CMC) 103 % of control | dose: 12.0 mg/kg/injection, schedule: Q01DX Z (ip), vehicle: carboxymethylcellulose (CMC) 112 % of control | dose: 18.0 mg/kg/injection, schedule: Q01DX Z (ip), vehicle: carboxymethylcellulose (CMC) 108 % of control | dose: 18.0 mg/kg/injection, schedule: Q01DX Z (ip), vehicle: methylcellulose (MC) 103 % of control | dose: 24.0 mg/kg/injection, schedule: Q01DX Z (ip), vehicle: carboxymethylcellulose (CMC) 112 % of control | dose: 25.0 mg/kg/injection, schedule: Q01DX009 (ip), vehicle: saline 118 % of control | dose: 27.0 mg/kg/injection, schedule: Q01DX Z (ip), vehicle: carboxymethylcellulose (CMC) 100 % of control | dose: 37.5 mg/kg/injection, schedule: Q04DX003 (ip), vehicle: saline 104 % of control | dose: 48.0 mg/kg/injection, schedule: Q01DX Z (ip), vehicle: carboxymethylcellulose (CMC) 109 % of control | dose: 50.0 mg/kg/injection, schedule: Q01DX009 (ip), vehicle: saline 88 % of control | dose: 60.0 mg/kg/injection, schedule: Q01DX Z (ip), vehicle: methylcellulose (MC) 109 % of control | [6] 105 % of control | [7] 89 % of control

NC1(C(=O)O)CCCc2ccc(N(CCCl)CCCl)cc21 (stereo not drawn)
active: dose: 8.3 mg/kg/injection, schedule: Q01DX009 (ip), vehicle: carboxymethylcellulose (CMC) 152 % of control | dose: 10.8 mg/kg/injection, schedule: Q01DX009 (ip), vehicle: carboxymethylcellulose (CMC) 168 % of control | dose: 12.5 mg/kg/injection, schedule: Q01DX009 (ip), vehicle: carboxymethylcellulose (CMC) 163 % of control and 165 % of control | dose: 18.0 mg/kg/injection, schedule: Q01DX009 (ip), vehicle: carboxymethylcellulose (CMC) 161 % of control
inactive: dose: 0.45 mg/kg/injection, schedule: Q01DX009 (ip), vehicle: carboxymethylcellulose (CMC) 101 % of control | dose: 0.95 mg/kg/injection, schedule: Q01DX009 (ip), vehicle: carboxymethylcellulose (CMC) 124 % of control | dose: 1.8 mg/kg/injection, schedule: Q01DX009 (ip), vehicle: carboxymethylcellulose (CMC) 119 % of control | dose: 6.0 mg/kg/injection, schedule: Q01DX001 (ip), vehicle: carboxymethylcellulose (CMC) 121 % of control | dose: 11.0 mg/kg/injection, schedule: Q01DX001 (ip), vehicle: carboxymethylcellulose (CMC) 114 % of control and 124 % of control | dose: 16.0 mg/kg/injection, schedule: Q01DX001 (ip), vehicle: carboxymethylcellulose (CMC) 112 % of control | dose: 48.0 mg/kg/injection, schedule: Q01DX001 (ip), vehicle: carboxymethylcellulose (CMC) 114 % of control | dose: 50.0 mg/kg/injection, schedule: Q01DX001 (ip), vehicle: carboxymethylcellulose (CMC) 123 % of control

COc1ccc2c3c1OC1c4[nH]ncc4CC4C(C2)N(C)CCC314 (stereo not drawn)
inactive: [8] 104 % of control | [10] 93 % of control | [14] 106 % of control

CCCCCCCN(CCCCCCC)CC(O)c1c2ccccc2cc2c1ccc1ccccc12 (stereo not drawn)
inactive: [15] 91 % of control | [8] 101 % of control | [9] 104 % of control | [10] 93 % of control | [14] 93 % of control

CCOc1ccc2[nH]c(=S)sc2c1
inactive: dose: 50.0 mg/kg/injection, schedule: Q01DX009 (ip), vehicle: Klucel (hydroxypropylcellulose) (HPC) 93 % of control | [15] 102 % of control | [8] 105 % of control | [9] 86 % of control | [10] 89 % of control | [14] 100 % of control

Cc1cc(C)c2c(SC(C)C)nc(N)nc2n1
inactive: dose: 100.0 mg/kg/injection, schedule: Q01DX Z (ip), vehicle: methylcellulose (MC) 95 % of control | dose: 200.0 mg/kg/injection, schedule: Q01DX Z (ip), vehicle: methylcellulose (MC) 97 % of control
